The source of these data is US11919856B2, “Compounds” (UCL BUSINESS LTD, priority 2018, dated 2024).

SMILES strings stand for the structures.

The target in assay [1] is T1, Z-alpha-1-antitrypsin (Z-A1AT) (Homo sapiens, UniProt P01009, E366K/V237A).
T1 construct: Z-alpha-1-antitrypsin was purified from human plasma; from tissue; host or cells: human plasma of ZZ homozygous donors
Description: Inhibition of Z-alpha-1-antitrypsin polymerisation TR-FRET assay. The format is biochemical. As to conditions: mean, 5 nM Z-A1AT, 72 hours at 37° C. The text has this:
The potencies of the compounds of the invention for inhibition of Z-alpha-1-antitrypsin (Z-A1AT) polymerisation can be determined by a time-resolved fluorescence energy transfer (TR-FRET) assay performed on purified Z-A1AT as described herein. […] Mean activity data for the assay described below for compounds 1-4:
Inhibition of Z-Alpha-1-Antitrypsin Polymerisation Assay Protocol
Z-alpha-1-antitrypsin was purified from human plasma of donors homozygous for the Z-A1AT form. The purification was performed according to a published protocol (Lomas et al. Biochemistry 1993; 32:500-508) involving ammonium sulphate precipitation, thiol exchange fractionation, and anion exchange fractionation.
Purified Z-A1AT was diluted to 5 nM in PBS buffer with 0.01% Tween-20 and mixed with different concentrations of inhibitor compounds dissolved in DMSO, in 384-well assay plates. Following incubation for 72 hours at 37° C., the amount of Z-A1AT polymer was detected using a time-resolved fluorescence resonance energy transfer (TR-FRET) assay format, by adding an antibody detection mix to the assay plates. The detection mix contained an A1AT-polymer specific monoclonal antibody (Miranda et al. Hepatology 2010; 52: 1078-1088), Terbium-labelled anti-mouse antibody, a polyclonal rabbit anti-A1AT antibody, and an Alexa488-labelled anti-rabbit antibody. TR-FRET data were normalised to controls (DMSO vehicle control giving 0% inhibition, saturating concentrations of an active compound giving 100% inhibition), and IC50 values were derived by fitting 4-parameter logistic curves to the normalised data.
An antibody-based time-resolved fluorescence resonance energy transfer (TR-FRET) assay was used to monitor the polymerisation of 5 nM Z α1-antitrypsin following incubation with varying concentrations of compounds at 37° C. for 72 hours. This assay used the 2C1 monoclonal antibody that is specific to pathological polymers of α1-antitrypsin (Miranda et al. Hepatology 2010; 52: 1078-1088), a polyclonal antibody that binds to all forms of α1-antitrypsin, an anti-mouse IgG fluorescence donor (Eu-W1024) and an anti-rabbit IgG acceptor (APC).

The test system of a further assay is Z α1-antitrypsin polymer. The conditions noted are these: 2 weeks of dosing; Hidvegi et al. Science 2010; cited from earlier work.

T1 sequence (P01009 25-418 V237A/E366K): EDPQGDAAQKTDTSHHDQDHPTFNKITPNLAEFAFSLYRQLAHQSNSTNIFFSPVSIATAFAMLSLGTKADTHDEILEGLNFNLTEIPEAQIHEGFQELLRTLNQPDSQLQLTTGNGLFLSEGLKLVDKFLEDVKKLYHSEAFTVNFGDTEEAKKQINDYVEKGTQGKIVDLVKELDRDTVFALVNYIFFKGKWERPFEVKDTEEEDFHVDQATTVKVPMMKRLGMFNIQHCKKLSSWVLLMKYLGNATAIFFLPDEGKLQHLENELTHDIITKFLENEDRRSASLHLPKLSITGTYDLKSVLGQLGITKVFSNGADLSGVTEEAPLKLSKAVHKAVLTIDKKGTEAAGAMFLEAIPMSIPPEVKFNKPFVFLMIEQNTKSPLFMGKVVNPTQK

For orientation: IC50 means the concentration at which inhibition is half-maximal. A lower IC50 goes with inhibition by little substance. The molecule `CCC[C@@H](NC(=O)c1ccc(F)c2c1CC(=O)N2)[C@@H](O)c1cccc(F)c1Cl` [Compound 4, N-((1S,2R)-1-(2-chloro-3-fluorophenyl)-1-hydroxypentan-2-yl)-7-fluoro-2-oxoindoline-4-carboxamide] had an IC50 in assay [1] of 6.31 nM.

Turning to `NC(=O)N1c2ccccc2C=Cc2ccccc21` [Carbamazapine], in the assay on Z α1-antitrypsin polymer, the “effects on liver polymer in Z α1-antitrypsin transgenic mice” value is reported as “pronounced effects”.

`CCC[C@@H](NC(=O)c1cccc2c1CC(=O)N2)[C@@H](O)c1cccc(Cl)c1C` [Compound 2, N-((1S,2R)-1-(3-chloro-2-methylphenyl)-1-hydroxypentan-2-yl)-2-oxoindoline-4-carboxamide]: the midpoint of inhibition in assay [1], the IC50, lay at 2.51 nM.

In the case of `CCC[C@@H](NC(=O)c1ccc(F)c2c1CC(=O)N2)[C@@H](O)c1cccc(C#N)c1Cl` [Compound 3, N-((1S,2R)-1-(2-chloro-3-cyanophenyl)-1-hydroxypentan-2-yl)-7-fluoro-2-oxoindoline-4-carboxamide], it took 3.16 nM to reach half-maximal inhibition in assay [1] (IC50).
